From patent US20250388544A1, “HETEROAROMATIC INHIBITORS OF ASTACIN PROTEINASES” (VIVORYON THERAPEUTICS N.V., priority 2019, published 2025) come the findings set out here.

Structures are written as SMILES.

Holding throughout (type): biochemical
The target in test [1] is T1, hMeprin β (Homo sapiens, UniProt Q16820).
T1 sequence (Q16820 62-701): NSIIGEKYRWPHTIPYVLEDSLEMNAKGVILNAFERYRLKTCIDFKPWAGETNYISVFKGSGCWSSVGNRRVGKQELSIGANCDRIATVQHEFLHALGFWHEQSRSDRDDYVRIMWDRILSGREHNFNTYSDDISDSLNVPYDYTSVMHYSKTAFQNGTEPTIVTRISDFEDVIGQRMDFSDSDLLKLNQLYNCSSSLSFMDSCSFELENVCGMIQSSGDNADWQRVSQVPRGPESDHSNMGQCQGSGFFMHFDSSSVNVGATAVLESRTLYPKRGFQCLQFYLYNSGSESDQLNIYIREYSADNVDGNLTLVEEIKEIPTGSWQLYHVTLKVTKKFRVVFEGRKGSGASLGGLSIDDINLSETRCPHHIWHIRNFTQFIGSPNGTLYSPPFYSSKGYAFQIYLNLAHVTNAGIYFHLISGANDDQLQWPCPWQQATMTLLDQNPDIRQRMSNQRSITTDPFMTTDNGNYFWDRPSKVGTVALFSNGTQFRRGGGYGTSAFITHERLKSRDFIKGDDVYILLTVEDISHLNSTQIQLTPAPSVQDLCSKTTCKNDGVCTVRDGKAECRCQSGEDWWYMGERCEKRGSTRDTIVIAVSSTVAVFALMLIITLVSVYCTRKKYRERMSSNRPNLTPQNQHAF
The test is described as follows: Enzymatic assay, quenched peptide substrate cleavage, method A. As to conditions: geometric mean (geometric SD factor in parentheses), read-out: Meprin beta IC50. The procedure:
(§1) The determination of enzymatic activity was based on the cleavage of internally quenched peptide substrates. A typical assay of 250 μl total volume measured in black 96 well plates consisted of 100 μl buffer, 50 μl enzyme at a final concentration of 5e-8 M to 2e-10 M, 50 μl substrate (0.15 to 80 μM, in buffer, 0.5% DMSO) and 50 μl inhibitor solution (in buffer, 1% DMSO). In case of 125 μl assay volume (black 96 half area well plates) all volumes were cut in half. Enzymatic activity of ADAMs was measured in 384 well plates with 60 μl total assay volume consisting of 20 μl inhibitor, 20 μl buffer, 10 μl enzyme and 10 μl substrate.
(§2) Based on method B Ki^(app) values were determined using Morrison's equation. All measurements were performed using a fluorescence plate reader (FLUOSTAR OPTIMA, BMG Labtech) at 30° C. The kinetic parameters were determined at least in duplicates on separate days. The excitation/emission wavelength was 340/420 nm. The kinetic data was evaluated using GRAFIT software (version 7.0.3, Erithacus Software).

Test [2] concerns the target T2, hMeprin α (Homo sapiens, UniProt Q16819).
T2 sequence (Q16819 66-746): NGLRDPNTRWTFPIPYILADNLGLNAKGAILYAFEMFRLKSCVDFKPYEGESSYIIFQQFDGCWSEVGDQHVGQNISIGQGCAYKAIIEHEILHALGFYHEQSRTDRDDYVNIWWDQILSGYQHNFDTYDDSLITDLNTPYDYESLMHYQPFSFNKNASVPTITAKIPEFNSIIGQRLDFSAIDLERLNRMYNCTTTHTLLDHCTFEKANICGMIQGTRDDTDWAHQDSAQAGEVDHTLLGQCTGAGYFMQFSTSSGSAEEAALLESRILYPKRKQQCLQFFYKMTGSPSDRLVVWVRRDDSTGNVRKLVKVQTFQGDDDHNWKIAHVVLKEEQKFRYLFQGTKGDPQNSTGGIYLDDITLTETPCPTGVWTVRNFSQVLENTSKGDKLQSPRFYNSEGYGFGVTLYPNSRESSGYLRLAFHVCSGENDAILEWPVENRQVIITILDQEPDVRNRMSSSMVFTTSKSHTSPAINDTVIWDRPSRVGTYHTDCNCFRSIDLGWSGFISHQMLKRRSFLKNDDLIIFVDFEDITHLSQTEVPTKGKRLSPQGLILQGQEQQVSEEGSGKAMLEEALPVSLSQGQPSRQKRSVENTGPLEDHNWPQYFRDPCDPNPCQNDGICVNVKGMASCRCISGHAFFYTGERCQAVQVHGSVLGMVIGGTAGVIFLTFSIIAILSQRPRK
Described as above. As to conditions: geometric mean (geometric SD factor in parentheses), read-out: Meprin alpha IC50. The procedure: as §1, §2

For test [3], the target named is T2, hMeprin α. The test is described as follows: Enzymatic assay, quenched peptide substrate cleavage, method B. The following applies: geometric mean (geometric SD factor in parentheses); for IC50: read-out: Meprin alpha IC50; for Ki: Morrison's equation, read-out: Meprin alpha Ki(app). The method in brief:
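Cleavage of internally quenched peptides was read at 340/420 nm and 30° C., with enzyme at 5e-8 to 2e-10 M and substrate at 0.15–80 μM. Inhibitor solutions contained 1% DMSO and substrate 0.5% DMSO. Method B gave Ki(app) values via Morrison's equation, with kinetics measured in at least duplicate on separate days.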

As to `O=C(Cc1c(-c2ccccc2)n[nH]c1-c1ccccc1)NO` [Example 1, 2-(3,5-Diphenyl-1H-pyrazol-4-yl)ethanehydroxamic acid], the IC50 in test [1] turned out to be 204 nM; in test [2] it was 4 nM; in test [3] it was 1 nM.

On to `O=C(Cc1c(-c2ccccc2)noc1-c1ccccc1)NO` [Example 2, 2-(3,5-Diphenylisoxazol-4-yl)ethanehydroxamic acid], for which the IC50 is 831 nM in test [1], 7 nM in test [2] and 4 nM in test [3]. In addition, in test [3], the Ki was found to be 4 nM.

Regarding `O=C(CCc1c(-c2ccccc2)n[nH]c1-c1ccccc1)NO` [Example 3, 3-(3,5-Diphenyl-1H-pyrazol-4-yl)propanehydroxamic acid], the IC50 in test [1] came to 8070 nM; in test [2], 108 nM; in test [3] it was 80 nM. In test [3], the Ki stood at 78 nM.

As for `O=C(CCc1c(-c2ccccc2)noc1-c1ccccc1)NO` [Example 4, 3-(3,5-Diphenylisoxazol-4-yl)propanehydroxamic acid], the results for the IC50 in test [1] and in test [2] were 13700 nM and 32 nM, respectively.

`O=C(Cn1c(-c2ccccc2)nnc1-c1ccccc1)NO` [Example 7, 2-(3,5-Diphenyl-1,2,4-triazol-4-yl)ethanehydroxamic acid]: the IC50 in test [1] turned out to be 8710 nM; in test [2], 69 nM.

Turning to `O=C(Cn1c(-c2ccccc2)ccc1-c1ccccc1)NO` [Example 9, 2-(2,5-Diphenylpyrrol-1-yl)ethanehydroxamic acid], the IC50 in test [1] came out at 4320 nM; in test [2], 34 nM.

With `O=C(Cn1c(-c2ccccc2)nc2ccccc21)NO` [Example 13, 2-(2-Phenylbenzimidazol-1-yl)ethanehydroxamic acid], the IC50 in test [1] was 1630 nM; in test [2], 173 nM; in test [3], 141 nM. Also, in test [3], the Ki is 128 nM.

For the molecule `O=C(Cn1c(-c2ccccc2)cc2ccccc21)NO` [Example 25, 2-(2-Phenylindol-1-yl)ethanehydroxamic acid], the IC50 turned out to be 1140 nM in test [1] and 72 nM in test [2].

In the case of `O=C(Cc1c(-c2ccccc2)nn(Cc2ccc(C(=O)O)cc2)c1-c1ccccc1)NO` [Example 40, 4-[[4-(2-(Hydroxyamino)-2-oxo-ethyl]-3,5-diphenyl-1H-pyrazol-1-yl]methyl]benzoic acid], in test [3], the Ki came out at 0.38 nM and the IC50 is 0.45 nM.

As for `O=C(Cc1c(-c2ccccc2)nn(Cc2cccc(C(=O)O)c2)c1-c1ccccc1)NO` [Example 41, 3-[[4-[2-(Hydroxyamino)-2-oxo-ethyl]-3,5-diphenyl-1H-pyrazol-1-yl]methyl]benzoic acid], in test [3], the Ki is 0.33 nM and the IC50 was found to be 0.39 nM.

As for `O=C(Cc1c(-c2ccccc2)nn(Cc2ccc(Cl)c(O)c2F)c1-c1ccccc1)NO` [Example 42, 2-[1-(4-Chloro-2-fluoro-3-hydroxybenzyl)-3,5-diphenyl-1H-pyrazol-4-yl]ethanehydroxamic acid], in test [3], the Ki was found to be 0.08 nM and the IC50 was determined as 0.16 nM.

Take `O=C(Cc1c(-c2ccccc2)nn(Cc2ccc3c(c2)OCO3)c1-c1ccccc1)NO` [Example 43, 2-[1-(1,3-Benzodioxol-5-ylmethyl)-3,5-diphenyl-1H-pyrazol-4-yl]ethanehydroxamic acid]: in test [3], the Ki stood at 0.59 nM and the IC50 is 0.75 nM.

As for `COc1cccc(-c2n[nH]c(-c3ccccc3)c2CC(=O)NO)c1` [Example 47, 2-[3-(3-Methoxyphenyl)-5-phenyl-1H-pyrazol-4-yl]ethanehydroxamic acid], in test [3], the Ki was determined as 1 nM and the IC50 worked out at 1 nM.

Consider `COc1ccc(-c2n[nH]c(-c3ccccc3)c2CC(=O)NO)cc1OC` [Example 49, 2-[3-(3,4-Dimethoxyphenyl)-5-phenyl-1H-pyrazol-4-yl]ethanehydroxamic acid], for which, in test [3], the Ki was found to be 0.71 nM and the IC50 worked out at 0.79 nM.

Turning to `O=C(Cc1c(-c2ccc3c(c2)OCO3)n[nH]c1-c1ccccc1)NO` [Example 50, 2-[3-(1,3-Benzodioxol-5-yl)-5-phenyl-1H-pyrazol-4-yl]ethanehydroxamic acid], in test [3], the Ki was 1 nM and the IC50 was found to be 1 nM.

For `O=C(Cc1c(-c2cc(F)c(O)c(Cl)c2)n[nH]c1-c1ccccc1)NO` [Example 54, 2-[3-(3-Chloro-5-fluoro-4-hydroxy-phenyl)-5-phenyl-1H-pyrazol-4-yl]ethanehydroxamic acid], in test [3], the Ki came out at 0.14 nM and the IC50 is 0.21 nM.

Take `O=C(Cc1c(-c2cccc(C(=O)O)c2)n[nH]c1-c1ccc(Cl)c(O)c1F)NO` [Example 63, 3-[5-(4-Chloro-2-fluoro-3-hydroxy-phenyl)-4-[2-(hydroxyamino)-2-oxo-ethyl]-1H-pyrazol-3-yl]benzoic acid]: in test [3], the Ki is 5 nM and the IC50 was determined as 5 nM.

As a reminder, the IC50 is the concentration at which inhibition is half-maximal.
